Reference: PMC9696710 (International Journal of Molecular Sciences, 2022)

Columns and labels:
Experiment in all cases: stopped-flow CO2 hydrase assay
Type in all cases: biochemical
[1] = molecular target: T1, hCA I (Homo sapiens, UniProt P00915); details: read-out: KI (nM) ^a / hCA I (α-CA)
T1 construct: gene CA1; recombinant, obtained in-house; cytosolic alpha-CA
Description: stopped-flow CO2 hydrase assay on hCA I

[2] = molecular target: T2, CgNce103 (Nakaseomyces glabratus, UniProt Q6FTL6); details: read-out: KI (nM) ^a / CgNce103 (β-CA)
T2 construct: gene NCE103; recombinant, obtained in-house; beta-CA
T2 sequence (Q6FTL6 1-219): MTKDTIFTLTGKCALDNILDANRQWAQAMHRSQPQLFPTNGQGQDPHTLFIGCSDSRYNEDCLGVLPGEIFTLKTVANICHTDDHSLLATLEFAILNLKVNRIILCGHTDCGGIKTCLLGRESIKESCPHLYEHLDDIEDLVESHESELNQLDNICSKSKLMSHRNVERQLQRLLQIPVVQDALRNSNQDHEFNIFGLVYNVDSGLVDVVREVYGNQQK

[3] = molecular target: T3, hCA II (Homo sapiens, UniProt P00918); details: read-out: KI (nM) ^a / hCA II (α-CA)
T3 construct: gene CA2; recombinant, obtained in-house; cytosolic alpha-CA
Description: stopped-flow CO2 hydrase assay on hCA II

[4] = molecular target: T4, MgCA (Malassezia globosa, UniProt A8Q1N3); details: […] TRIS pH […] Na2SO4, […] h preincubation at room temperature; read-out: KI (nM) ^a / MgCA (β-CA)
T4 construct: gene MGL_1814; recombinant, obtained in-house; beta-CA
T4 sequence (A8Q1N3 1-241): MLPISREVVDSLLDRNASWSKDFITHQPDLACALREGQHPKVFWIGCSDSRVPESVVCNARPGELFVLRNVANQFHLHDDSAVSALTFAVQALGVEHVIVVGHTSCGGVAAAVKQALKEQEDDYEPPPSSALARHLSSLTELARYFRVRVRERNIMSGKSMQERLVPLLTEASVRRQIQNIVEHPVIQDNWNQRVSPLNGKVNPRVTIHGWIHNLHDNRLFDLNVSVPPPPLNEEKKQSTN

[5] = molecular target: T5, hCA VII (Homo sapiens, UniProt P43166); details: read-out: KI (nM) ^a / hCA VII (α-CA)
T5 construct: gene CA7; recombinant, obtained in-house; cytosolic alpha-CA
T5 sequence (P43166 whole entry): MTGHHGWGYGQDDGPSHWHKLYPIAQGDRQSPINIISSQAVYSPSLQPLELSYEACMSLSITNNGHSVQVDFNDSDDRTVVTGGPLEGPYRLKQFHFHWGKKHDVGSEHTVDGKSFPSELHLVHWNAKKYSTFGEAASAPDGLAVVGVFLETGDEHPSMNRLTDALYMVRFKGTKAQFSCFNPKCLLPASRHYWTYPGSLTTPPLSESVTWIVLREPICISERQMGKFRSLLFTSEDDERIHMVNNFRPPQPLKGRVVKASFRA
Description: stopped-flow CO2 hydrase assay on hCA VII

T1 sequence (P00915 2-261): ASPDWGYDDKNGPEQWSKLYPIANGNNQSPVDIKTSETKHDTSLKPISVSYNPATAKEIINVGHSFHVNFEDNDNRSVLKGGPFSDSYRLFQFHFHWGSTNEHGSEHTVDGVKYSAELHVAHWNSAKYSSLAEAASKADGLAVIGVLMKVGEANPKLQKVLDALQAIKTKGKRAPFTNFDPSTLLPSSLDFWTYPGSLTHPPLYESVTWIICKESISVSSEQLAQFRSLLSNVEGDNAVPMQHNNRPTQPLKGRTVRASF

**Q.** How did the Ki [1] turn out when `NS(=O)(=O)c1ccc(N2CC(=O)N(Cc3ccc(Cl)c(Cl)c3)C2=O)cc1` [8m, 4-(3-(3,4-Dichlorobenzyl)-2,4-dioxoimidazolidin-1-yl)benzenesulfonamide] was run?
**A.** 688 nM

**Q.** And the Ki [2]?
**A.** 67.9 nM

**Q.** What about the Ki [3] of the same molecule?
**A.** 85.6 nM

**Q.** What about the Ki [4] of the same molecule?
**A.** > 100000 nM

**Q.** And the Ki [5]?
**A.** 133 nM

**Q.** How did the Ki [1] turn out when `Cc1cccc(CN2C(=O)CN(c3ccc(S(N)(=O)=O)cc3)C2=O)c1` [8k, 4-(3-(3-Methylbenzyl)-2,4-dioxoimidazolidin-1-yl)benzenesulfonamide] was run?
**A.** 1080 nM

**Q.** What about the Ki [2] of the same molecule?
**A.** 8.4 nM

**Q.** What about the Ki [3] of the same molecule?
**A.** 58.3 nM

**Q.** And the Ki [4]?
**A.** > 100000 nM

**Q.** What about the Ki [5] of the same molecule?
**A.** 18.8 nM

**Q.** For `NS(=O)(=O)c1ccc(N2CC(=O)N(Cc3ccccc3F)C2=O)cc1` [8l, 4-(3-(2-Fluorobenzyl)-2,4-dioxoimidazolidin-1-yl)benzenesulfonamide], which Ki [1] is on record?
**A.** 447 nM

**Q.** What about the Ki [2] of the same molecule?
**A.** 48.8 nM

**Q.** What about the Ki [3] of the same molecule?
**A.** 1.2 nM

**Q.** And the Ki [4]?
**A.** 81100 nM

**Q.** And the Ki [5]?
**A.** 12.7 nM

**Q.** Which results are given for `NS(=O)(=O)c1ccc(N2CC(=O)N(Cc3ccc(Cl)cc3)C2=O)cc1` [8f, 4-(3-(4-Chlorobenzyl)-2,4-dioxoimidazolidin-1-yl)benzenesulfonamide]?
**A.** Ki [1]: 8790 nM; Ki [2]: 44.9 nM; Ki [3]: 62.2 nM; Ki [4]: 41500 nM; Ki [5]: 15.3 nM

**Q.** Which Ki [1] does the source give for `CCCCCCCN1C(=O)CN(c2ccc(S(N)(=O)=O)cc2)C1=O` [8b, 4-(3-Heptyl-2,4-dioxoimidazolidin-1-yl)benzenesulfonamide] here?
**A.** 747 nM

**Q.** And the Ki [2]?
**A.** 83.7 nM

**Q.** And the Ki [3]?
**A.** 56.4 nM

**Q.** What about the Ki [4] of the same molecule?
**A.** 95700 nM

**Q.** And the Ki [5]?
**A.** 187 nM

**Q.** Which Ki [1] does the source give for `C=CCN1C(=O)CN(c2ccc(S(N)(=O)=O)cc2)C1=O` [8c, 4-(3-Allyl-2,4-dioxoimidazolidin-1-yl)benzenesulfonamide] here?
**A.** 234 nM

**Q.** What about the Ki [2] of the same molecule?
**A.** 54.2 nM

**Q.** What about the Ki [3] of the same molecule?
**A.** 32.6 nM

**Q.** And the Ki [4]?
**A.** 66600 nM

**Q.** What about the Ki [5] of the same molecule?
**A.** 19.5 nM

**Q.** `Cc1ccc(CN2C(=O)CN(c3ccc(S(N)(=O)=O)cc3)C2=O)cc1` [8e, 4-(3-(4-Methylbenzyl)-2,4-dioxoimidazolidin-1-yl)benzenesulfonamide] was tested. Which Ki [1] did it give?
**A.** 2930 nM

**Q.** And the Ki [2]?
**A.** 18.3 nM

**Q.** And the Ki [3]?
**A.** 32.7 nM

**Q.** What about the Ki [4] of the same molecule?
**A.** 38900 nM

**Q.** What about the Ki [5] of the same molecule?
**A.** 3 nM

**Q.** `NS(=O)(=O)c1ccc(N2CC(=O)N(Cc3ccc(OC(F)(F)F)cc3)C2=O)cc1` [8j, 4-(2,4-Dioxo-3-(4-(trifluoromethoxy)benzyl)imidazolidin-1-yl)benzenesulfonamide] was tested. Which Ki [1] did it give?
**A.** 425 nM

**Q.** What about the Ki [2] of the same molecule?
**A.** 5.9 nM

**Q.** And the Ki [3]?
**A.** 16.4 nM

**Q.** What about the Ki [4] of the same molecule?
**A.** > 100000 nM

**Q.** What about the Ki [5] of the same molecule?
**A.** 22.4 nM

**Q.** How did the Ki [1] turn out when `NS(=O)(=O)c1ccc(N2CC(=O)N(Cc3ccc([N+](=O)[O-])cc3)C2=O)cc1` [8h, 4-(3-(4-Nitrobenzyl)-2,4-dioxoimidazolidin-1-yl)benzenesulfonamide] was run?
**A.** 657 nM

**Q.** And the Ki [2]?
**A.** 6.6 nM

**Q.** And the Ki [3]?
**A.** 6.1 nM

**Q.** What about the Ki [4] of the same molecule?
**A.** > 100000 nM

**Q.** What about the Ki [5] of the same molecule?
**A.** 30.3 nM

**Q.** Which results are given for `NS(=O)(=O)c1ccc(N2CC(=O)N(Cc3c(F)c(F)c(F)c(F)c3F)C2=O)cc1` [8n, 4-(2,4-Dioxo-3-((perfluorophenyl)methyl)imidazolidin-1-yl)benzenesulfonamide]?
**A.** Ki [1]: 415 nM; Ki [2]: 35.7 nM; Ki [3]: 91.2 nM; Ki [4]: 34900 nM; Ki [5]: 16.9 nM

**Q.** What does the source list for `N#Cc1ccc(CN2C(=O)CN(c3ccc(S(N)(=O)=O)cc3)C2=O)cc1` [8g, 4-(3-(4-Cyanobenzyl)-2,4-dioxoimidazolidin-1-yl)benzenesulfonamide]?
**A.** Ki [1]: 570 nM; Ki [2]: 38.4 nM; Ki [3]: 7.2 nM; Ki [4]: > 100000 nM; Ki [5]: 12 nM

**Q.** Which results are given for `NS(=O)(=O)c1ccc(N2CC(=O)N(Cc3ccc(C(F)(F)F)cc3)C2=O)cc1` [8i, 4-(2,4-Dioxo-3-(4-(trifluoromethyl)benzyl)imidazolidin-1-yl)benzenesulfonamide]?
**A.** Ki [1]: 601 nM; Ki [2]: 13.1 nM; Ki [3]: 43.3 nM; Ki [4]: 59600 nM; Ki [5]: 14.3 nM

**Q.** `CCN1C(=O)CN(c2ccc(S(N)(=O)=O)cc2)C1=O` [8a, 4-(3-Ethyl-2,4-dioxoimidazolidin-1-yl)benzenesulfonamide] was tested. Which Ki [1] did it give?
**A.** 262 nM

**Q.** And the Ki [2]?
**A.** 46 nM

**Q.** What about the Ki [3] of the same molecule?
**A.** 25.8 nM

**Q.** And the Ki [4]?
**A.** 68100 nM

**Q.** And the Ki [5]?
**A.** 30.8 nM

**Q.** What does the source list for `NS(=O)(=O)c1ccc(N2CC(=O)N(Cc3ccccc3)C2=O)cc1` [8d, 4-(3-Benzyl-2,4-dioxoimidazolidin-1-yl)benzenesulfonamide]?
**A.** Ki [1]: 837 nM; Ki [2]: 20.9 nM; Ki [3]: 8.7 nM; Ki [4]: 64600 nM; Ki [5]: 5.3 nM

**Q.** With `NS(=O)(=O)c1ccc(N2CC(=O)NC2=O)cc1` [compound 6, 4-(2,4-Dioxoimidazolidin-1-yl)benzenesulfonamide] as the molecule, how does the Ki [1] read?
**A.** 504 nM

**Q.** And the Ki [2]?
**A.** 29.5 nM

**Q.** What about the Ki [3] of the same molecule?
**A.** 18.1 nM

**Q.** What about the Ki [4] of the same molecule?
**A.** 37200 nM

**Q.** And the Ki [5]?
**A.** 61.4 nM
